Measured values reported in US20250270213A1, “PI3Ka INHIBITORS” (Synnovation Therapeutics, Inc., priority 2022, published 2025).

These compounds were tested on T47D (PIK3CA H1047R) cells (assay: pS473 AKT assay with 2.5% FBS, T47D cells). Conditions: Homo sapiens, pSer473 AKT, DMEM with 2.5% FBS, 2 h treatment, read-out: T47D_IC50.
Format: cell-based
How it was run: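 In-cell chemiluminescent ELISA of AKT Ser473 phosphorylation, using anti-pSer473 primary and HRP secondary antibodies on fixed cells. T47D (PIK3CA H1047R) cells had 2 h of compound treatment in DMEM containing 2.5% FBS; IC50 derived from dose-response.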

IC50, < 1 µM:
CC(=O)N1CCC(Cn2ncc3c4c(C(C)Nc5ccc(Cl)nc5-c5cnn(C)c5)cc(C)cc4c(=O)n(C)c32)CC1 (stereo not shown) [Compound 107, 3-((1-acetylpiperidin-4-yl)methyl)-9-(1-((6-chloro-2-(1-methyl-1H-pyrazol-4-yl)pyridin-3-yl)amino)ethyl)-4,7-dimethyl-3,4-dihydro-5H-pyrazolo[3,4-c]isoquinolin-5-one]
CCn1c(=O)c2cc(C)cc(C(C)Nc3ccc(Cl)nc3-c3ccc(=O)n(C)c3)c2c2cnn([C@H]3CCOC3)c21 (stereo partly drawn) [Example 219, 9-(1-((6-chloro-1′-methyl-6′-oxo-1′,6′-dihydro-[2,3′-bipyridin]-3-yl)amino)ethyl)-4-ethyl-7-methyl-3-((S)-tetrahydrofuran-3-yl)-3,4-dihydro-5H-pyrazolo[3,4-c]isoquinolin-5-one]
Cc1cc(C(C)Nc2ccc(Cl)nc2-c2ccncc2F)c2c(c1)c(=O)n(C)c1c2cnn1C1CCN(C)CC1 (stereo not shown) [Compound 168, 9-[1-[[6-chloro-2-(3-fluoro-4-pyridyl)-3-pyridyl]amino]ethyl]-4,7-dimethyl-3-(1-methyl-4-piperidyl)pyrazolo[3,4-c]isoquinolin-5-one]
Cc1cc(C(C)Nc2ccc(Cl)nc2N2CCC(O)CC2)c2c(c1)c(=O)n(C)c1c2cnn1CCO (stereo not shown) [Example 245, 9-(1-((6-chloro-2-(4-hydroxypiperidin-1-yl)pyridin-3-yl)amino)ethyl)-3-(2-hydroxyethyl)-4,7-dimethyl-3,4-dihydro-5H-pyrazolo[3,4-c]isoquinolin-5-one]
Cc1cc(C(C)Nc2ccc(Cl)nc2-c2nnn(C)n2)c2c(c1)c(=O)n(C)c1c2cnn1CCO (stereo not shown) [Example 251, 9-(1-((6-chloro-2-(2-methyl-2H-tetrazol-5-yl)pyridin-3-yl)amino)ethyl)-3-(2-hydroxyethyl)-4,7-dimethyl-3,4-dihydro-5H-pyrazolo[3,4-c]isoquinolin-5-one]
Cc1cc(C(C)Nc2ccc(C)nc2-c2ccnc(C)c2)c2c(c1)c(=O)n1c3c2cnn3CCC1 (stereo not shown) [Compound 320, 10-(1-((2′,6-dimethyl-[2,4′-bipyridin]-3-yl)amino)ethyl)-8-methyl-4,5-dihydro-3H,6H-2,2a,5a-triazaaceanthrylen-6-one]
[2H]C([2H])([2H])n1c(=O)c2cc(C)cc(C(C)Nc3ccc(Cl)nc3-c3ncn(C)n3)c2c2cnn([C@H]3CCN(C)C3)c21 (stereo partly drawn) [Compound 105, 9-(1-((6-Chloro-2-(1-methyl-1H-1,2,4-triazol-3-yl)pyridin-3-yl)amino)ethyl)-7-methyl-4-(methyl-d3)-3-((S)-1-methylpyrrolidin-3-yl)-3,4-dihydro-5H-pyrazolo[3,4-c]isoquinolin-5-one]
Cc1cc(C(C)Nc2ccccc2C(=O)O)c2c(c1)c(=O)n(C)c1cncn21 (stereo not shown) [Compound I-4, 2-((1-(4,7-Dimethyl-5-oxo-4,5-dihydroimidazo[1,5-a]quinazolin-9-yl)ethyl)amino)benzoic acid]
CCN1CCC(n2ncc3c4c(C(C)Nc5ccc(Cl)nc5-c5ncn(C)n5)cc(C)cc4c(=O)n(C)c32)C1 (stereo not shown) [Compound 137, 9-(1-((6-chloro-2-(1-methyl-1H-1,2,4-triazol-3-yl)pyridin-3-yl)amino)ethyl)-3-(1-ethylpyrrolidin-3-yl)-4,7-dimethyl-3,4-dihydro-5H-pyrazolo[3,4-c]isoquinolin-5-one]
Cc1cc(C(C)Nc2ccc(Cl)nc2-c2ncn(C)n2)c2c(c1)c(=O)n(C)c1c2cnn1CCO (stereo not shown) [Example 242, 9-(1-((6-Chloro-2-(1-methyl-1H-1,2,4-triazol-3-yl)pyridin-3-yl)amino)ethyl)-3-(2-hydroxyethyl)-4,7-dimethyl-3,4-dihydro-5H-pyrazolo[3,4-c]isoquinolin-5-one]
CCn1ncc2c3c(C(C)Nc4ccc(Cl)nc4-c4ccnc(C)c4)cc(C)cc3c(=O)n(CC(F)F)c21 (stereo not shown) [Example 237, 9-(1-((6-chloro-2′-methyl-[2,4′-bipyridin]-3-yl)amino)ethyl)-4-(2,2-difluoroethyl)-3-ethyl-7-methyl-3,4-dihydro-5H-pyrazolo[3,4-c]isoquinolin-5-one]
Cc1cc(C(C)Nc2ccc(Cl)nc2-c2ncn(C)n2)c2c(c1)c(=O)n1c3c2cnn3C(CN(C)C)CC1 (stereo not shown) [Example 290, 10-(1-((6-Chloro-2-(1-methyl-1H-1,2,4-triazol-3-yl)pyridin-3-yl)amino)ethyl)-3-((dimethylamino)methyl)-8-methyl-4,5-dihydro-3H,6H-2,2a,5a-triazaaceanthrylen-6-one]
CCn1ncc2c3c(CNc4ccc(Cl)nc4-c4ccc(C(=O)NC)c(F)c4)cc(C)cc3c(=O)n(C)c21 [Example 225, 4-(6-Chloro-3-(((3-ethyl-4,7-dimethyl-5-oxo-4,5-dihydro-3H-pyrazolo[3,4-c]isoquinolin-9-yl)methyl)amino)pyridin-2-yl)-2-fluoro-N-methylbenzamide]
Cc1cc(C(C)Nc2ccc(Cl)nc2-c2ncn(C)n2)c2c(c1)c(=O)n(C)c1c2cnn1C1CN(CCO)C1 (stereo not shown) [Compound 89, 9-(1-((6-chloro-2-(1-methyl-1H-1,2,4-triazol-3-yl)pyridin-3-yl)amino)ethyl)-3-(1-(2-hydroxyethyl)azetidin-3-yl)-4,7-dimethyl-3,4-dihydro-5H-pyrazolo[3,4-c]isoquinolin-5-one]
Cc1cc(C(C)Nc2ccc(Cl)nc2-c2cnn(C)c2)c2c(c1)c(=O)n(C)c1c(-c3cccnc3C)ncn21 (stereo not shown) [Compound 116, 9-(1-((6-Chloro-2-(1-methyl-1H-pyrazol-4-yl)pyridin-3-yl)amino)ethyl)-4,7-dimethyl-3-(2-methylpyridin-3-yl) imidazo[1,5-a]quinazolin-5(4H)-one]
CCn1ncc2c3c(C(C)Nc4ccc(Cl)nc4-c4ccc(=O)n(C)c4)cc(C)cc3c(=O)n(C3CC3)c21 (stereo not shown) [Example 222, 9-[1-[[6-chloro-2-(1-methyl-6-oxo-3-pyridyl)-3-pyridyl]amino]ethyl]-4-cyclopropyl-3-ethyl-7-methyl-pyrazolo[3,4-c]isoquinolin-5-one]
CCn1ncc2c3c(C(C)Nc4ccc(Cl)nc4-c4nnn[nH]4)cc(C)cc3c(=O)n(C)c21 (stereo not shown) [Example 230, 9-(1-((6-chloro-2-(1H-tetrazol-5-yl)pyridin-3-yl)amino)ethyl)-3-ethyl-4,7-dimethyl-3,4-dihydro-5H-pyrazolo[3,4-c]isoquinolin-5-one]
Cc1cc(C(C)Nc2ccc(Cl)nc2-c2ccc3c(cnn3C)c2)c2c(c1)c(=O)n1c3c2cnn3CCC1 (stereo not shown) [Compound 316, 10-(1-((6-chloro-2-(1-methyl-1H-indazol-5-yl)pyridin-3-yl)amino)ethyl)-8-methyl-4,5-dihydro-3H,6H-2,2a,5a-triazaaceanthrylen-6-one]
CCn1ncc2c3c(C(C)Oc4ccc(Cl)nc4-c4c[nH]nc4C)cc(C)cc3c(=O)n(C)c21 (stereo not shown) [Example 226, 9-(1-((6-Chloro-2-(3-methyl-1H-pyrazol-4-yl)pyridin-3-yl)oxy)ethyl)-3-ethyl-4,7-dimethyl-3,4-dihydro-5H-pyrazolo[3,4-c]isoquinolin-5-one]
